{"source": "patent US10870832B2", "about": "“Use of small molecules to enhance MAFA expression in pancreatic endocrine cells” (Janssen Biotech, Inc., priority 2014, dated 2020)", "test_in_all_cases": "Kinase profiling of R428", "assay_type_in_all_cases": "biochemical", "key": {"PDGFRβ(h)": {"target": "PDGFRβ(h) (Homo sapiens, UniProt P09619)", "details": "100 μM ATP, lower number = more robust inhibition", "description": "(§1) The efficiency of the AXL inhibitor R428 for targeting different kinases was assessed by Kinase Profiling Services using 100 μM ATP concentration (EMD Millipore). R428 was tested at 1 and 10 μM. Table IV lists the kinases profiled along with the efficiency in targeting the kinases with a lower number indicating a more robust inhibition of a particular kinase."}, "NEK2(h)": {"target": "NEK2(h) (Homo sapiens, UniProt P51955)", "sequence (P51955 whole entry)": "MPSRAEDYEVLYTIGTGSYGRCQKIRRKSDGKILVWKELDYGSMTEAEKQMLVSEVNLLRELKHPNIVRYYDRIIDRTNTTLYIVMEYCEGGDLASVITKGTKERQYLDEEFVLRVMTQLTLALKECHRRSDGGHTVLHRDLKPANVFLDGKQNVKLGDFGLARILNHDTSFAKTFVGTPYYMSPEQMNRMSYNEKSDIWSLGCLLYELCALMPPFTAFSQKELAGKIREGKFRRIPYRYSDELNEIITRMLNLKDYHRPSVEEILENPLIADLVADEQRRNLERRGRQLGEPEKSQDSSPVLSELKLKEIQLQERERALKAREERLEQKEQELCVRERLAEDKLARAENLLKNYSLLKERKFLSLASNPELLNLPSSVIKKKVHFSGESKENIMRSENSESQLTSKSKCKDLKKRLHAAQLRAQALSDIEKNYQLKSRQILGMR", "details": "100 μM ATP, lower number = more robust inhibition", "description": "as §1"}, "IR(h)": {"target": "IR(h) (Homo sapiens, UniProt P06213)", "details": "100 μM ATP, lower number = more robust inhibition", "description": "as §1"}, "CDK1/cyclinB (Hh)": {"target": "CDK1/cyclinB (Hh) (Homo sapiens, UniProt P06493)", "details": "100 μM ATP, lower number = more robust inhibition", "description": "as §1"}, "JAK2(h)": {"target": "JAK2(h) (Homo sapiens, UniProt O60674)", "details": "100 μM ATP, lower number = more robust inhibition", "description": "as §1"}, "PKCβ1(h)": {"target": "PKCβ1(h) (Homo sapiens, UniProt P05771)", "sequence (P05771 whole entry)": "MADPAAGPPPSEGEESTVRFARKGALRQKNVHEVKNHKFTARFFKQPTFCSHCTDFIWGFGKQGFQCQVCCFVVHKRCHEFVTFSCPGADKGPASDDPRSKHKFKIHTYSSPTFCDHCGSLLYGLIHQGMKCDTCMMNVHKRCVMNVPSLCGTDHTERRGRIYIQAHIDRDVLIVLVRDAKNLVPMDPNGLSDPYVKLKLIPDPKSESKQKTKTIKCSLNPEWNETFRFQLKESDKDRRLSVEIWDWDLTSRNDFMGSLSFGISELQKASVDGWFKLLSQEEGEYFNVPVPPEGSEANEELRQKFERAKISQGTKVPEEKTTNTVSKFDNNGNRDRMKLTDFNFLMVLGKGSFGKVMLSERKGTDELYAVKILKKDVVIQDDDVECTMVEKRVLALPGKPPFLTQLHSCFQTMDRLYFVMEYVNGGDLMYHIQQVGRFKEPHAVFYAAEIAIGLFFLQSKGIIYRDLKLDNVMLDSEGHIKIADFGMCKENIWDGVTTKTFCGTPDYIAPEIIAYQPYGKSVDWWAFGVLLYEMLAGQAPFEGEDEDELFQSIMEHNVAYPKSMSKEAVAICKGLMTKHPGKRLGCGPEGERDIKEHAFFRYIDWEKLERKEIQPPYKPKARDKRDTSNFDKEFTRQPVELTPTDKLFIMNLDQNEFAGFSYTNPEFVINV", "details": "100 μM ATP, lower number = more robust inhibition", "description": "as §1"}, "FGFR1(h)": {"target": "FGFR1(h) (Homo sapiens, UniProt P11362)", "sequence (P11362 22-822)": "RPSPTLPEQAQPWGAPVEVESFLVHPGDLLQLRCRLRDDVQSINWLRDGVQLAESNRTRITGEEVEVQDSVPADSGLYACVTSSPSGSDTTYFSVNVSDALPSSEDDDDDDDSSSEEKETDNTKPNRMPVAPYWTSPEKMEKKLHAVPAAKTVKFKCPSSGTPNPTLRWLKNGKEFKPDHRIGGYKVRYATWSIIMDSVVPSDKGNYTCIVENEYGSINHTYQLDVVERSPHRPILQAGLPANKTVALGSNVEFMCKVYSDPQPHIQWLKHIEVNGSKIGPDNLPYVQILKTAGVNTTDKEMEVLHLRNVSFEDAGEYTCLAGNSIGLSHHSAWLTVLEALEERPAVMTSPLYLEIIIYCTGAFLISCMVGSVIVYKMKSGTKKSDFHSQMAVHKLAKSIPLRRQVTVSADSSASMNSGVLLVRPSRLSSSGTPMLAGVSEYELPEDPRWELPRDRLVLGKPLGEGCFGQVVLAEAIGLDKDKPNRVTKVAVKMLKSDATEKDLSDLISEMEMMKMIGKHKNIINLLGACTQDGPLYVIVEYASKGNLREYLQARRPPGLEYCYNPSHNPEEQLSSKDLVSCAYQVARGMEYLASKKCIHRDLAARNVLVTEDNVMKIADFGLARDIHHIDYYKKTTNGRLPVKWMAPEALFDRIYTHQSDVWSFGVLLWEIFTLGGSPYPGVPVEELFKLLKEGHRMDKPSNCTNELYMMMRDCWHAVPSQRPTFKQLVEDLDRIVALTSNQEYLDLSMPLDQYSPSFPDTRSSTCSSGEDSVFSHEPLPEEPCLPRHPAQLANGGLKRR", "details": "for efficiency in targeting FGFR1(h): 100 μM ATP, lower number = more robust inhibition", "description": "as §1"}, "TrkC(h)": {"target": "TrkC(h) (Homo sapiens, UniProt Q16288)", "sequence (Q16288 32-839)": "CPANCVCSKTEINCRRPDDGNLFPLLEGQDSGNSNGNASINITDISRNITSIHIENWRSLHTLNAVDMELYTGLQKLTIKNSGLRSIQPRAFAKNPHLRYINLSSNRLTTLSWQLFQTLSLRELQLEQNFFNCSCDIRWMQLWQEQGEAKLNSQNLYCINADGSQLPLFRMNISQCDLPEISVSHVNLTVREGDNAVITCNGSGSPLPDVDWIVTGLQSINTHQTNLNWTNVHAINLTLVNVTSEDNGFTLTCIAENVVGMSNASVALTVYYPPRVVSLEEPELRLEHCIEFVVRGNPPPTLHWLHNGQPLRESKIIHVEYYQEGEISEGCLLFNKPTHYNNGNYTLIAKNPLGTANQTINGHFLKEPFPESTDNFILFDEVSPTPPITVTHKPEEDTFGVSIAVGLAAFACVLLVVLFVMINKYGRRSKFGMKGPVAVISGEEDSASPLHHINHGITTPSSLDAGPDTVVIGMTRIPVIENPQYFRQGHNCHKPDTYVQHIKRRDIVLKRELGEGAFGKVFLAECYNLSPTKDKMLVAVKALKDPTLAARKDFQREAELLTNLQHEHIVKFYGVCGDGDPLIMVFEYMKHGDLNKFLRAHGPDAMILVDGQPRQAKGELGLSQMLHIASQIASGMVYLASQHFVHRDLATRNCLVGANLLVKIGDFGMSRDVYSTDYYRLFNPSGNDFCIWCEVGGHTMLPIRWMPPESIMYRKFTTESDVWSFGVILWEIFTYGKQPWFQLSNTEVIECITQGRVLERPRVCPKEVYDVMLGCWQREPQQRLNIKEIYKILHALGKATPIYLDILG", "details": "100 μM ATP, lower number = more robust inhibition", "description": "as §1"}, "CDK5/p35(h)": {"target": "CDK5/p35(h) (Homo sapiens, UniProt Q00535)", "sequence (Q00535 whole entry)": "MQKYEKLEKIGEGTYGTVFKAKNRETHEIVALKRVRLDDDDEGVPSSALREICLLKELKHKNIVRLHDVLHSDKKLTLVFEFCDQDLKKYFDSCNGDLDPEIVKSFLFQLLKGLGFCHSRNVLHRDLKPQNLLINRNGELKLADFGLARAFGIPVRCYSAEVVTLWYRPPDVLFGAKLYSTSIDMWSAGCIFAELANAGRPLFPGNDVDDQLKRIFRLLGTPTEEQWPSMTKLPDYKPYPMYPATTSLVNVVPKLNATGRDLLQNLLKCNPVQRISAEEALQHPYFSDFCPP", "sequence (Q15078 whole entry partner)": "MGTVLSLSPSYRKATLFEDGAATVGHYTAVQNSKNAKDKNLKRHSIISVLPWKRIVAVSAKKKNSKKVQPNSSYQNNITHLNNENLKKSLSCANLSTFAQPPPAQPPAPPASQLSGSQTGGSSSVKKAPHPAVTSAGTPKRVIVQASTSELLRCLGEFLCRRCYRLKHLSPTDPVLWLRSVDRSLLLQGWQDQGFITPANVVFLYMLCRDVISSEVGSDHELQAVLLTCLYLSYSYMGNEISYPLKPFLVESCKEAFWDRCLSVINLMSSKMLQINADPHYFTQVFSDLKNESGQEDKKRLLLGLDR", "details": "100 μM ATP, lower number = more robust inhibition", "description": "as §1"}, "ALK4(h)": {"target": "ALK4(h) (Homo sapiens, UniProt P36896)", "sequence (P36896 24-505)": "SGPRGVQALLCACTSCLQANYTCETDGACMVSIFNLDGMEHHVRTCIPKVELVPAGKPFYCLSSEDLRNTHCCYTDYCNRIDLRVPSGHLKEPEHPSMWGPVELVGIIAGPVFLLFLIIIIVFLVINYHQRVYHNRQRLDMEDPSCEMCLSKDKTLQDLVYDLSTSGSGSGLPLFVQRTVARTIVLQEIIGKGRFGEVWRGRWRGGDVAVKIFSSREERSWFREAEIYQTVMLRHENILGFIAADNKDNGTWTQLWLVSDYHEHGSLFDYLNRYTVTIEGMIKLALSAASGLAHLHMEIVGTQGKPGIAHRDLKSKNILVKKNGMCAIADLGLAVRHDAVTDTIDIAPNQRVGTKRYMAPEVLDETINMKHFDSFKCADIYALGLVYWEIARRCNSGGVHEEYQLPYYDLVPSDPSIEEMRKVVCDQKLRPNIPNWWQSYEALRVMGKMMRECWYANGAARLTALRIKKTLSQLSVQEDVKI", "details": "100 μM ATP, lower number = more robust inhibition", "description": "as §1"}, "ZAP-70(h)": {"target": "ZAP-70(h) (Homo sapiens, UniProt P43403)", "sequence (P43403 whole entry)": "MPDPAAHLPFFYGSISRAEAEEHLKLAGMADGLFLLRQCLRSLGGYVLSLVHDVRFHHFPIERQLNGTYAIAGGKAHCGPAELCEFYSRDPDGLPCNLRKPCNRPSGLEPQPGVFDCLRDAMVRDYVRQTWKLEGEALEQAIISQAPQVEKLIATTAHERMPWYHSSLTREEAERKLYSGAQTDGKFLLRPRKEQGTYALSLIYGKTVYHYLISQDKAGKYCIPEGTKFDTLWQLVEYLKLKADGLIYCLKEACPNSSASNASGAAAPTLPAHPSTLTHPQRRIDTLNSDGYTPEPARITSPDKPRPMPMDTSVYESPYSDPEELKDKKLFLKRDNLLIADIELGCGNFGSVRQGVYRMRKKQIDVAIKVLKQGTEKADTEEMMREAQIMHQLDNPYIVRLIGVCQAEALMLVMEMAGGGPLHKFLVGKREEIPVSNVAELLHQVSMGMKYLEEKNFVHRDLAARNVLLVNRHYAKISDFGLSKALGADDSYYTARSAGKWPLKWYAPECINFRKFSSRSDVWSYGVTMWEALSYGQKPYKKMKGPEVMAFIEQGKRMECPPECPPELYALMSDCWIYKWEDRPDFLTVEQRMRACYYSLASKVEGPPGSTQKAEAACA", "details": "100 μM ATP, lower number = more robust inhibition", "description": "as §1"}, "Flt3(h)": {"target": "T1, Flt3(h) (Homo sapiens, UniProt P36888)", "T1 sequence (P36888 27-993)": "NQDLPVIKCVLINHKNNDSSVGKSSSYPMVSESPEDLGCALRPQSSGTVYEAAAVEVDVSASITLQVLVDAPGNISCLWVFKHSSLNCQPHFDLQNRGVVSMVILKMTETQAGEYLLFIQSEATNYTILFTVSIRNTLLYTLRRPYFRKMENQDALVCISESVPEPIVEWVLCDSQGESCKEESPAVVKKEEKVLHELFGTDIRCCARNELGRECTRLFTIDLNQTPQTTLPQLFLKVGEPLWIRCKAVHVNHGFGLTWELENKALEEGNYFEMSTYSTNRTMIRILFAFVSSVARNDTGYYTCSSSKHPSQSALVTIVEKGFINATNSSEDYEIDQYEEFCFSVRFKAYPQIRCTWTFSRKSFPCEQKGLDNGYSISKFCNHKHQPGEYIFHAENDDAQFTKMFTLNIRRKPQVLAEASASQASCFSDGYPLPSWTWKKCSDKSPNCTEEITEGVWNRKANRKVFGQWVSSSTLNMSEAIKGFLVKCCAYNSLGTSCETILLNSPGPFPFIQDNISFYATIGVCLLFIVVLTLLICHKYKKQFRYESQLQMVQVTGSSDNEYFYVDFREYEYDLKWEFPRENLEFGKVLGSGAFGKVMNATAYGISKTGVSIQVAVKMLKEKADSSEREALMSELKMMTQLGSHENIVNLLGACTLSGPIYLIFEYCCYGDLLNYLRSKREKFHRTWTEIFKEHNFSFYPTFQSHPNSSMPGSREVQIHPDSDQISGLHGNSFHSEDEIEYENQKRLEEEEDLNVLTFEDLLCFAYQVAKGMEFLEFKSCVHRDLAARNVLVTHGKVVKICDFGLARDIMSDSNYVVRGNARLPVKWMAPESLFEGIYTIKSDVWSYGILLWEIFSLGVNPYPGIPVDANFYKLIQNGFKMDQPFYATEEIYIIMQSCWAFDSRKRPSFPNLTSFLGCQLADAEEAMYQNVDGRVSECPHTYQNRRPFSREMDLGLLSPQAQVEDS", "details": "for efficiency in targeting Flt3(h): 100 μM ATP, lower number = more robust inhibition", "description": "as §1"}, "Axl(h)": {"target": "T2, Axl(h) (Homo sapiens, UniProt P30530)", "T2 sequence (P30530 26-894)": "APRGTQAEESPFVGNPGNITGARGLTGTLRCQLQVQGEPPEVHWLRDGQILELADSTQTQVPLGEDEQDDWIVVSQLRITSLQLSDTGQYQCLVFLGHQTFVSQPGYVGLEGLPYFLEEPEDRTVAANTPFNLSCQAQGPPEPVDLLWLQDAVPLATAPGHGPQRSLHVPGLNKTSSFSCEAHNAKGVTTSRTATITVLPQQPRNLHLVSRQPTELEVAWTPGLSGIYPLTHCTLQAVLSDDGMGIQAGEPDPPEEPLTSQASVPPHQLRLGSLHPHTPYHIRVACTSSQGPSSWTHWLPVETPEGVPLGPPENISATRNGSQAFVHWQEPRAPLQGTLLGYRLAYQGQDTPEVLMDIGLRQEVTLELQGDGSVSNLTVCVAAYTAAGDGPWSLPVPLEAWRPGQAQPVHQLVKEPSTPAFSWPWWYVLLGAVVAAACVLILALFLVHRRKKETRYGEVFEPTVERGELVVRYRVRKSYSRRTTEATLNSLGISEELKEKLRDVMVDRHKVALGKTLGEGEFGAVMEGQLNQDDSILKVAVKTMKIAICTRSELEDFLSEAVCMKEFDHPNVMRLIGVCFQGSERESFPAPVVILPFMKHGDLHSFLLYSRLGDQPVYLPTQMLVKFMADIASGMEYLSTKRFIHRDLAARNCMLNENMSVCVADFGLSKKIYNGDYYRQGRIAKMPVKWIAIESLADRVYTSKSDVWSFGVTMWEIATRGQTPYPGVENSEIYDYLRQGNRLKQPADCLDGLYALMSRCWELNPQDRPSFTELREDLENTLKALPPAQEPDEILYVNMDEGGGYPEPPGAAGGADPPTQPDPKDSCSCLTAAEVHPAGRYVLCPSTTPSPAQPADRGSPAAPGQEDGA", "details": "for efficiency in targeting Axl(h): 100 μM ATP, lower number = more robust inhibition", "description": "as §1"}}}
{"smiles": "Nc1nc(Nc2ccc3c(c2)CC[C@@H](N2CCCC2)CC3)nn1-c1cc2c(nn1)-c1ccccc1CCC2", "note": "[R428, 1H-1,2,4-Triazole-3,5-diamine, 1-(6,7-dihydro-5H-benzo[6,7]cyclohepta[1,2-c]pyridazin-3-yl) N3-[(7S)-6,7,8,9-tetrahydro-7-(1-pyrrolidinyl)-5H-benzocyclohepten-2-yl]-]", "values": [{"measurement": "efficiency in targeting PDGFRβ(h)", "setting": "PDGFRβ(h); R428 @ 1 μM", "value": 37}, {"measurement": "efficiency in targeting PDGFRβ(h)", "setting": "PDGFRβ(h); R428 @ 10 μM", "value": 21}, {"measurement": "efficiency in targeting NEK2(h)", "setting": "NEK2(h); R428 @ 1 μM", "value": 60}, {"measurement": "efficiency in targeting NEK2(h)", "setting": "NEK2(h); R428 @ 10 μM", "value": 10}, {"measurement": "efficiency in targeting IR(h)", "setting": "IR(h); R428 @ 1 μM", "value": 83}, {"measurement": "efficiency in targeting IR(h)", "setting": "IR(h); R428 @ 10 μM", "value": 24}, {"measurement": "efficiency in targeting CDK1/cyclinB (Hh)", "setting": "CDK1/cyclinB (Hh); R428 @ 1 μM", "value": 101}, {"measurement": "efficiency in targeting CDK1/cyclinB (Hh)", "setting": "CDK1/cyclinB (Hh); R428 @ 10 μM", "value": 88}, {"measurement": "efficiency in targeting JAK2(h)", "setting": "JAK2(h); R428 @ 1 μM", "value": 96}, {"measurement": "efficiency in targeting JAK2(h)", "setting": "JAK2(h); R428 @ 10 μM", "value": 41}, {"measurement": "efficiency in targeting PKCβ1(h)", "setting": "PKCβ1(h); R428 @ 1 μM", "value": 102}, {"measurement": "efficiency in targeting PKCβ1(h)", "setting": "PKCβ1(h); R428 @ 10 μM", "value": 95}, {"measurement": "efficiency in targeting FGFR1(h)", "setting": "FGFR1(h); R428 @ 1 μM", "value": 17}, {"measurement": "efficiency in targeting FGFR1(h)", "setting": "FGFR1(h); R428 @ 10 μM", "value": 1}, {"measurement": "inhibition of FGFr1 (in words)", "setting": "FGFR1(h); at 1 and 10 μM", "value": "potently inhibits"}, {"measurement": "efficiency in targeting TrkC(h)", "setting": "TrkC(h); R428 @ 1 μM", "value": 47}, {"measurement": "efficiency in targeting TrkC(h)", "setting": "TrkC(h); R428 @ 10 μM", "value": 13}, {"measurement": "efficiency in targeting CDK5/p35(h)", "setting": "CDK5/p35(h); R428 @ 1 μM", "value": 101}, {"measurement": "efficiency in targeting CDK5/p35(h)", "setting": "CDK5/p35(h); R428 @ 10 μM", "value": 94}, {"measurement": "efficiency in targeting ALK4(h)", "setting": "ALK4(h); R428 @ 1 μM", "value": 84}, {"measurement": "efficiency in targeting ALK4(h)", "setting": "ALK4(h); R428 @ 10 μM", "value": 48}, {"measurement": "efficiency in targeting ZAP-70(h)", "setting": "ZAP-70(h); R428 @ 1 μM", "value": 92}, {"measurement": "efficiency in targeting ZAP-70(h)", "setting": "ZAP-70(h); R428 @ 10 μM", "value": 66}, {"measurement": "efficiency in targeting Flt3(h)", "setting": "Flt3(h); R428 @ 1 μM", "value": 9}, {"measurement": "efficiency in targeting Flt3(h)", "setting": "Flt3(h); R428 @ 10 μM", "value": 1}, {"measurement": "inhibition of Flt (in words)", "setting": "Flt3(h); at 1 and 10 μM", "value": "potently inhibits"}, {"measurement": "efficiency in targeting Axl(h)", "setting": "Axl(h); R428 @ 1 μM", "value": "−1"}, {"measurement": "efficiency in targeting Axl(h)", "setting": "Axl(h); R428 @ 10 μM", "value": "−1"}, {"measurement": "inhibition of AXL (in words)", "setting": "Axl(h); kinase profiling results", "value": "inhibits AXL as expected"}]}
